In ChEMBL document CHEMBL3244136, “Structure-activity study of beta-adrenergic agents using the SIMCA method of pattern recognition” (J Med Chem, 1978):

What was measured:
[1] = system: Anura; assay: Displacement of (-)-[3H]alprenolol from adrenergic receptor purified from frog erythrocytes
[2] = system: Anura; assay: Displacement of (-)-[3H]alprenolol from adrenergic receptor purified from frog erythrocytes relative to isoproterenol

CNCC(O)c1cccc(O)c1 (centres undefined) showed a pKb [1] of 4.28.

CCNCC(O)c1cccc(O)c1 (centres undefined) gave a pKb [1] of 4.66.

CC(COc1ccccc1)NC(C)C(O)c1ccc(O)cc1 (centres undefined) was tested, and the pKb [1] was 5.85.

CC(C)(Cc1ccc(O)cc1)NCC(O)c1ccc(O)c(O)c1 (centres undefined) gave a pKb [1] of 7.22 and an Intrinsic activity [2] of 1.2.

Work on CC(Cc1ccc(O)cc1)NCC(O)c1ccc(O)c(O)c1 (centres undefined) yielded a pKb [1] of 6.17 and an Intrinsic activity [2] of 1.1.

Molecule CC(N)C(O)c1ccc(O)c(O)c1 (centres undefined) has a pKb [1] of 4.55 and an Intrinsic activity [2] of 0.87.

Oc1ccc(CCCNCCc2ccc(O)c(O)c2)cc1 showed a pKb [1] of 4.64 and an Intrinsic activity [2] of 0.17.

For Oc1ccc(CCNCCc2ccc(O)c(O)c2)cc1, the pKb [1] was 4.33 and the Intrinsic activity [2] was 0.25.

In the case of NCCc1ccc(O)cc1, the pKb [1] is reported as < 3.7.

For NCCc1ccc(O)c(O)c1, the pKb [1] was < 3.7.

Work on CC(CCc1ccc(O)cc1)NCCc1ccc(O)c(O)c1 (centres undefined) yielded a pKb [1] of 4.62 and an Intrinsic activity [2] of 0.25.

In the case of COc1cccc(C(O)C(C)NC(C)C)c1 (centres undefined), the pKb [1] is reported as 5.11.

For NCC(O)c1cccc(Cl)c1 (centres undefined), the pKb [1] was 4.08.

NC(CCO)C(O)c1ccccc1 (centres undefined) was tested, and the pKb [1] was 4.29.

Molecule CC(N)C(O)c1cccc(O)c1 (centres undefined) has a pKb [1] of 4.46.

Work on CC(NCCc1ccc(O)cc1)C(O)c1ccc(O)cc1 (centres undefined) yielded a pKb [1] of 5.06.

Work on CNC[C@H](O)c1ccc(O)c(O)c1 yielded a pKb [1] of 5.07 and an Intrinsic activity [2] of 0.75.

In the case of CC(CCc1ccccc1)NC(C)C(O)c1ccc(O)cc1 (centres undefined), the pKb [1] is reported as 6.74.

CNC(C)C(O)c1ccccc1 (centres undefined) was tested, and the pKb [1] was 5.04.

NCC(O)c1ccc(O)cc1 (centres undefined) was tested, and the pKb [1] was < 3.7.

NCCc1ccccc1 showed a pKb [1] of 3.7.

Molecule CNCC(O)c1cccc(NS(C)(=O)=O)c1 (centres undefined) has a pKb [1] of 4.19.

In the case of NC[C@H](O)c1ccc(O)c(O)c1, the pKb [1] is reported as < 3.7.

In the case of CC(C)(Cc1ccccc1)NCC(O)c1ccc(O)c(NS(C)(=O)=O)c1 (centres undefined), the pKb [1] is reported as 7.85 and the Intrinsic activity [2] is reported as 0.27.

For CC(COc1ccccc1)NC(C)C(O)c1ccc(O)c(CS(=O)(=O)N(C)C)c1 (centres undefined), the pKb [1] was 7.12.

Work on CCC(N)C(O)c1ccc(O)c(O)c1 (centres undefined) yielded a pKb [1] of 4.74 and an Intrinsic activity [2] of 0.71.

For CCC(NC1CCCC1)C(O)c1ccc(O)c(O)c1 (centres undefined), the pKb [1] was 4.41 and the Intrinsic activity [2] was 0.64.

Work on CC(Cc1ccc2c(c1)OCO2)NCC(O)c1ccc(O)c(O)c1 (centres undefined) yielded a pKb [1] of 6.17 and an Intrinsic activity [2] of 1.1.
